# Non-standard residues stand in square brackets, D forms with d. Residues, ends and D or L forms follow the SMILES beside them. Primed or numbered codes have the meaning given here. No end group written: not given here. *: point of attachment. FITC = O=C1OC2(c3ccc(O)cc3Oc3cc(O)ccc32)c2ccc(NC(=S)*)cc21; Phe(4-Me) = Cc1ccc(C[C@H](N)C(=O)O)cc1; FITC′ = not defined here
# What was measured:
# Rluc-ADGRG2-ΔGPS-β I741A [1] = target: T1, Rluc-ADGRG2-ΔGPS-β I741A (Mus musculus, UniProt Q8CJ12, I755A); experiment: BRET binding of FITC-VPM-p15; settings: mutant I741A
# T1 construct: the entire ECD (including the entire GPS motif) was removed (ADGRG2-ΔGPS-β); expressed in transfected cells; host or cells: HEK293
# Experimental: (§1) The binding capacities of ADGRG2 WT or its mutants for VPM-p15 were determined by BRET assay, which has been used in previous studies ([27], [28], [29]). We fused the N terminus of ADGRG2 with a Rluc fragment and coupled FITC to the C terminus of VPM-p15 to facilitate BRET measurement. We stimulated the HEK293 cells transfected with Rluc-ADGRG2-ΔGPS-β wildtype (WT) or mutants by increasing the concentration of FITC-conjugated VPM-p15, and their binding abilities were determined by fitting the data with the saturation curves.
# (§2) In the detection of binding capacities of ADGRG2 WT or its mutants for VPM-p15, HEK293 cells were transfected with Rluc-ADGRG2-ΔGPS-β or mutants. Transfected cells were stimulated by increasing the concentration of FITC-conjugated VPM-p15. Binding capacities were determined by BRET, EC50 values of ADGRG2 WT and its mutants for binding VPM-p15 were calculated by GraphPad, and data were normalized by EC50 of WT.
# Rluc-ADGRG2-ΔGPS-β T610A = target: T2, Rluc-ADGRG2-ΔGPS-β T610A (Mus musculus, UniProt Q8CJ12, T624A); experiment: BRET binding of FITC-VPM-p15; settings: mutant T610A
# T2 construct: the entire ECD (including the entire GPS motif) was removed (ADGRG2-ΔGPS-β); expressed in transfected cells; host or cells: HEK293
# Experimental: as §1, §2
# Rluc-ADGRG2-ΔGPS-β V731A = target: T3, Rluc-ADGRG2-ΔGPS-β V731A (Mus musculus, UniProt Q8CJ12, V745A); experiment: BRET binding of FITC-VPM-p15; settings: mutant V731A
# T3 construct: the entire ECD (including the entire GPS motif) was removed (ADGRG2-ΔGPS-β); expressed in transfected cells; host or cells: HEK293
# Experimental: as §1, §2
# Rluc-ADGRG2-ΔGPS-β F747A = target: T4, Rluc-ADGRG2-ΔGPS-β F747A (Mus musculus, UniProt Q8CJ12, F761A); experiment: BRET binding of FITC-VPM-p15; settings: mutant F747A
# T4 construct: the entire ECD (including the entire GPS motif) was removed (ADGRG2-ΔGPS-β); expressed in transfected cells; host or cells: HEK293
# Experimental: as §1, §2
# Rluc-ADGRG2-ΔGPS-β WT = target: T5, Rluc-ADGRG2-ΔGPS-β WT (Mus musculus, UniProt Q8CJ12); experiment: BRET binding of FITC-VPM-p15; settings: receptor WT
# T5 construct: the entire ECD (including the entire GPS motif) was removed (ADGRG2-ΔGPS-β); expressed in transfected cells; host or cells: HEK293
# Experimental: as §1, §2
# Rluc-ADGRG2-ΔGPS-β V834A = target: T6, Rluc-ADGRG2-ΔGPS-β V834A (Mus musculus, UniProt Q8CJ12, V848A); experiment: BRET binding of FITC-VPM-p15; settings: mutant V834A
# T6 construct: expressed in transfected cells; host or cells: HEK293
# Experimental: as §1, §2
# Rluc-ADGRG2-ΔGPS-β F828A = target: T7, Rluc-ADGRG2-ΔGPS-β F828A (Mus musculus, UniProt Q8CJ12, F842A); experiment: BRET binding of FITC-VPM-p15; settings: mutant F828A
# T7 construct: expressed in transfected cells; host or cells: HEK293
# Experimental: as §1, §2
# Rluc-ADGRG2-ΔGPS-β S661A = target: T8, Rluc-ADGRG2-ΔGPS-β S661A (Mus musculus, UniProt Q8CJ12, S675A); experiment: BRET binding of FITC-VPM-p15; settings: mutant S661A
# T8 construct: the entire ECD (including the entire GPS motif) was removed (ADGRG2-ΔGPS-β); expressed in transfected cells; host or cells: HEK293
# Experimental: as §1, §2
# Rluc-ADGRG2-ΔGPS-β V762A = target: T9, Rluc-ADGRG2-ΔGPS-β V762A (Mus musculus, UniProt Q8CJ12, V776A); experiment: BRET binding of FITC-VPM-p15; settings: mutant V762A
# T9 construct: the entire ECD (including the entire GPS motif) was removed (ADGRG2-ΔGPS-β); expressed in transfected cells; host or cells: HEK293
# Experimental: as §1, §2
# Rluc-ADGRG2-ΔGPS-β L665A = target: T10, Rluc-ADGRG2-ΔGPS-β L665A (Mus musculus, UniProt Q8CJ12, L679A); experiment: BRET binding of FITC-VPM-p15; settings: mutant L665A
# T10 construct: the entire ECD (including the entire GPS motif) was removed (ADGRG2-ΔGPS-β); expressed in transfected cells; host or cells: HEK293
# Experimental: as §1, §2
# Rluc-ADGRG2-ΔGPS-β L679A = target: T11, Rluc-ADGRG2-ΔGPS-β L679A (Mus musculus, UniProt Q8CJ12, L693A); experiment: BRET binding of FITC-VPM-p15; settings: mutant L679A
# T11 construct: the entire ECD (including the entire GPS motif) was removed (ADGRG2-ΔGPS-β); expressed in transfected cells; host or cells: HEK293
# Experimental: as §1, §2
# Rluc-ADGRG2-ΔGPS-β V768A = target: T12, Rluc-ADGRG2-ΔGPS-β V768A (Mus musculus, UniProt Q8CJ12, V782A); experiment: BRET binding of FITC-VPM-p15; settings: mutant V768A
# T12 construct: the entire ECD (including the entire GPS motif) was removed (ADGRG2-ΔGPS-β); expressed in transfected cells; host or cells: HEK293
# Experimental: as §1, §2
# Rluc-ADGRG2-ΔGPS-β I730A [2] = target: T13, Rluc-ADGRG2-ΔGPS-β I730A (Mus musculus, UniProt Q8CJ12, I744A); experiment: BRET binding of FITC-VPM-p15; settings: mutant I730A
# T13 construct: the entire ECD (including the entire GPS motif) was removed (ADGRG2-ΔGPS-β); expressed in transfected cells; host or cells: HEK293
# Experimental: as §1, §2
# Rluc-ADGRG2-ΔGPS-β W757A = experiment: BRET binding of FITC-VPM-p15; set-up: species or system mouse; settings: HEK293, BRET saturation binding, repeated 6 times
# Experimental: as §1, §2
# Rluc-ADGRG2-ΔGPS-β W824A = experiment: BRET binding of FITC-VPM-p15; set-up: species or system mouse; settings: HEK293, BRET saturation binding, repeated 6 times
# Experimental: as §1, §2
# Rluc-ADGRG2-ΔGPS-β I758A = experiment: BRET binding of FITC-VPM-p15; set-up: species or system mouse; settings: HEK293, BRET saturation binding, repeated 6 times
# Experimental: as §1, §2
# Rluc-ADGRG2-ΔGPS-β I730A [3] = target: T14, Rluc-ADGRG2-ΔGPS-β I730A (mouse, UniProt Q8CJ12-3 38-995, I730A); experiment: FRET or BRET; HEK293 cells transfected with Rluc-ADGRG2-ΔGPS-β WT or mutants, stimulated by increasing concentrations of FITC-conjugated VPM-p15; saturation curves fitted with GraphPad; each experiment repeated 6 times; settings: one partner purified
# T14 construct: ADGRG2 (GPR64), mouse, ADGRG2-ΔGPS-β: the entire ECD removed; source: HEK293, transfected, on cells; not shown: Rluc, N-terminal, kept
# Rluc-ADGRG2-ΔGPS-β I741A [4] = target: T15, Rluc-ADGRG2-ΔGPS-β I741A (mouse, UniProt Q8CJ12-3 38-995, I741A); experiment: as above; settings: one partner purified
# T15 construct: ADGRG2 (GPR64), mouse, ADGRG2-ΔGPS-β: the entire ECD removed; also called F741A (as the methods list it); source: HEK293, transfected, on cells; not shown: Rluc, N-terminal, kept
# [5] = Kd(mutated ADGRG2-ΔGPS-β)/Kd(WT)
# T6 sequence (Q8CJ12 614-1009 V848A): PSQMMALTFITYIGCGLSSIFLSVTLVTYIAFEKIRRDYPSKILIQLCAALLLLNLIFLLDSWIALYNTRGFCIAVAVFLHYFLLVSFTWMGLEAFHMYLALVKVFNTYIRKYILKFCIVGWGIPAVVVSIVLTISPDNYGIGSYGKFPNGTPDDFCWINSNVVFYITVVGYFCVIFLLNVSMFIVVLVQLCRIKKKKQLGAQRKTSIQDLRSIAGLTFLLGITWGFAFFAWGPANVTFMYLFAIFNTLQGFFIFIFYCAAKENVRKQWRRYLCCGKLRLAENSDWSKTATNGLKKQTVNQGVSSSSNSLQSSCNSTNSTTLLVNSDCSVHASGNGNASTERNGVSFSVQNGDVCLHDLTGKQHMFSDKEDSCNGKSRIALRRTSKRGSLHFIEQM
# T10 sequence (Q8CJ12 618-1009 L679A limits assumed): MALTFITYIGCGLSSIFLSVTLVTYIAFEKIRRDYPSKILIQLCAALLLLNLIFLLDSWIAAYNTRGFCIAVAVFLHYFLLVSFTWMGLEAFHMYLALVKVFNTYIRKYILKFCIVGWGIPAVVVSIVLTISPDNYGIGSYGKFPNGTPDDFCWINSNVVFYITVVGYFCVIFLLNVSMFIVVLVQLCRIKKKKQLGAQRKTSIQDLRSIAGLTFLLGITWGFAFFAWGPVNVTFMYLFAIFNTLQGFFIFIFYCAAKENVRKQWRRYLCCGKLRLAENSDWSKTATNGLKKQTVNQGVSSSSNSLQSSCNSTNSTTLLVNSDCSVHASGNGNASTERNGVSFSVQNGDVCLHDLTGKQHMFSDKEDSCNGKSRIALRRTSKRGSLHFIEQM
# T1 sequence (Q8CJ12 618-1009 I755A limits assumed): as the sequence (Q8CJ12 618-1009 L679A limits assumed) above, with A62L, I138A counted along it
# T4 sequence (Q8CJ12 618-1009 F761A limits assumed): as the sequence (Q8CJ12 618-1009 L679A limits assumed) above, with A62L, F144A counted along it
# T2 sequence (Q8CJ12 618-1009 T624A limits assumed): as the sequence (Q8CJ12 618-1009 L679A limits assumed) above, with T7A, A62L counted along it
# T7 sequence (Q8CJ12 614-1009 F842A): as the sequence (Q8CJ12 614-1009 V848A) above, with F229A, A235V counted along it
# T13 sequence (Q8CJ12 618-1009 I744A limits assumed): as the sequence (Q8CJ12 618-1009 L679A limits assumed) above, with A62L, I127A counted along it
# T11 sequence (Q8CJ12 618-1009 L693A limits assumed): as the sequence (Q8CJ12 618-1009 L679A limits assumed) above, with A62L, L76A counted along it
# T9 sequence (Q8CJ12 618-1009 V776A limits assumed): as the sequence (Q8CJ12 618-1009 L679A limits assumed) above, with A62L, V159A counted along it
# T8 sequence (Q8CJ12 618-1009 S675A limits assumed): as the sequence (Q8CJ12 618-1009 L679A limits assumed) above, with S58A, A62L counted along it
# T5 sequence (Q8CJ12 618-1009 limits assumed, stated change not applied): as the sequence (Q8CJ12 618-1009 L679A limits assumed) above, with A62L counted along it
# T12 sequence (Q8CJ12 618-1009 V782A limits assumed): as the sequence (Q8CJ12 618-1009 L679A limits assumed) above, with A62L, V165A counted along it
# T15 sequence (Q8CJ12 other isoform, or with tags, fused parts or gaps I741A | I741A | I741A I741A): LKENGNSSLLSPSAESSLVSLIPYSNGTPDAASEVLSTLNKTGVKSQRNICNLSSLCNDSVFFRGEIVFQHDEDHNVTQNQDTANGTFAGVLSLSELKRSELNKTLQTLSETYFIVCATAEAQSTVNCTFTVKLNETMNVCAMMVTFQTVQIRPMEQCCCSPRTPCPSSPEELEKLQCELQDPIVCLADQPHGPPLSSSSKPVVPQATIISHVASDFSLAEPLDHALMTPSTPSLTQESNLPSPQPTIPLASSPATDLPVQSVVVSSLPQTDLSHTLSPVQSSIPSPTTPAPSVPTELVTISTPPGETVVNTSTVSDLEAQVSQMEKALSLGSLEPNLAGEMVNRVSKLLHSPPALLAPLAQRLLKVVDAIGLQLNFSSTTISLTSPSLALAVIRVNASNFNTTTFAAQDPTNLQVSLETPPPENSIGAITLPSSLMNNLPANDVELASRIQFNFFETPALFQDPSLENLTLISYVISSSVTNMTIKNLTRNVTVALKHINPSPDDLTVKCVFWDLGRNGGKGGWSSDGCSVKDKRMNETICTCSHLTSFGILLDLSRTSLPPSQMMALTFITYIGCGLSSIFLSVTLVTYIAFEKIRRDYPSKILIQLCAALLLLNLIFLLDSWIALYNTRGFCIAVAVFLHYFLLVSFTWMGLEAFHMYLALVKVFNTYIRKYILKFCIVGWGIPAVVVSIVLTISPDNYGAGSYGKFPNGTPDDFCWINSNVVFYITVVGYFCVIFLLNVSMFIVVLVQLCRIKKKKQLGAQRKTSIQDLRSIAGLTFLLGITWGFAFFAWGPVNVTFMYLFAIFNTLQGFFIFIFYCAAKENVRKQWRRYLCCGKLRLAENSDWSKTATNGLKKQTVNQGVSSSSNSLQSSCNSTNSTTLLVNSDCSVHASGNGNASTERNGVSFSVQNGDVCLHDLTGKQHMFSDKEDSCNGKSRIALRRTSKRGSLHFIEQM
# T3 sequence (Q8CJ12 618-1009 V745A limits assumed): as the sequence (Q8CJ12 618-1009 L679A limits assumed) above, with A62L, V128A counted along it
# T14 sequence (Q8CJ12 other isoform, or with tags, fused parts or gaps I730A | I730A | I730A I730A): as the sequence (Q8CJ12 other isoform, or with tags, fused parts or gaps I741A | I741A | I741A I741A) above, with I693A, A704I counted along it
molecule,measurement,setting,value
CC[C@H](C)[C@H](NC(=O)CNC(=O)[C@H](Cc1ccc(C)cc1)NC(=O)[C@H](CO)NC(=O)[C@@H](N)C(C)C)C(=O)N[C@@H](CC(C)C)C(=O)N[C@@H](CC(C)C)C(=O)N[C@@H](CC(=O)O)C(=O)N[C@@H](CC(C)C)C(=O)N[C@@H](CO)C(=O)N[C@@H](CCCNC(=N)N)C(=O)N[C@H](C(=O)N[C@@H](CO)C(=O)N[C@@H](CC(C)C)C(=O)N1CCC[C@H]1C(=O)N[C@@H](CCCCNC(=S)Nc1ccc2c(c1)C(=O)OC21c2ccc(O)cc2Oc2cc(O)ccc21)C(=O)O)[C@@H](C)O [FITC-VPM-p15] (H-VS[Phe(4-Me)]GILLDLSRTSLPK(FITC)-OH; N-terminus and C-terminus assumed),Fmut,Rluc-ADGRG2-ΔGPS-β I741A [1]; [5],0.715
same,Bmax,Rluc-ADGRG2-ΔGPS-β I741A [1]; binding Bmax (BRET),0.775±0.093
same,Fmut,Rluc-ADGRG2-ΔGPS-β T610A; [5],1.197
same,Bmax,Rluc-ADGRG2-ΔGPS-β T610A; binding Bmax (BRET),0.8072±0.024
same,Bmax,Rluc-ADGRG2-ΔGPS-β V731A,0.7903±0.018
same,Fmut,Rluc-ADGRG2-ΔGPS-β F747A; [5],0.811
same,Bmax,Rluc-ADGRG2-ΔGPS-β F747A; binding Bmax (BRET),0.813±0.041
same,Fmut,Rluc-ADGRG2-ΔGPS-β WT; [5],1.000
same,Bmax,Rluc-ADGRG2-ΔGPS-β WT; binding Bmax (BRET),0.809±0.015
same,Fmut,Rluc-ADGRG2-ΔGPS-β V834A; [5],1.196
same,Bmax,Rluc-ADGRG2-ΔGPS-β V834A; binding Bmax (BRET),0.789±0.016
same,Fmut,Rluc-ADGRG2-ΔGPS-β F828A; [5],1.247
same,Bmax,Rluc-ADGRG2-ΔGPS-β F828A; binding Bmax (BRET),0.706±0.006
same,Fmut,Rluc-ADGRG2-ΔGPS-β S661A; [5],0.832
same,Bmax,Rluc-ADGRG2-ΔGPS-β S661A; binding Bmax (BRET),0.6895±0.021
same,Fmut,Rluc-ADGRG2-ΔGPS-β V762A; [5],1.268
same,Bmax,Rluc-ADGRG2-ΔGPS-β V762A; binding Bmax (BRET),0.798±0.021
same,Fmut,Rluc-ADGRG2-ΔGPS-β L665A; [5],0.850
same,Bmax,Rluc-ADGRG2-ΔGPS-β L665A; binding Bmax (BRET),0.799±0.012
same,Fmut,Rluc-ADGRG2-ΔGPS-β L679A; [5],1.242
same,Bmax,Rluc-ADGRG2-ΔGPS-β L679A; binding Bmax (BRET),0.7804±0.017
same,Fmut,Rluc-ADGRG2-ΔGPS-β V768A; [5],1.112
same,Bmax,Rluc-ADGRG2-ΔGPS-β V768A; binding Bmax (BRET),0.792±0.029
same,Fmut,Rluc-ADGRG2-ΔGPS-β I730A [2]; [5],1.281
same,Bmax,Rluc-ADGRG2-ΔGPS-β I730A [2]; binding Bmax (BRET),0.7950±0.031
same,Binding to mutant (result in words across EC50 / Fmut / Bmax),Rluc-ADGRG2-ΔGPS-β W757A,No binding
same,Binding to mutant (result in words across EC50 / Fmut / Bmax),Rluc-ADGRG2-ΔGPS-β W824A,No binding
same,Binding to mutant (result in words across EC50 / Fmut / Bmax),Rluc-ADGRG2-ΔGPS-β I758A,No binding
VS[Phe(4-Me)]GILLDLSRTSLP-{FITC′} [FITC-conjugated VPM-p15 (ADGRG2 Stachel peptide p15 T1V/F3Phe(4-Me))],EC50,Rluc-ADGRG2-ΔGPS-β I730A [3],1200 nM
same,EC50,Rluc-ADGRG2-ΔGPS-β I741A [4],669 nM

# Source: paper PMC7948503, “Optimization of a peptide ligand for the adhesion GPCR ADGRG2 provides a potent tool to explore receptor biology” (The Journal of Biological Chemistry, 2020)
